The target of assay [1] is T1, Alkaline phosphatase, tissue-nonspecific isozyme (Homo sapiens, UniProt P05186).
T1 sequence (P05186 whole entry): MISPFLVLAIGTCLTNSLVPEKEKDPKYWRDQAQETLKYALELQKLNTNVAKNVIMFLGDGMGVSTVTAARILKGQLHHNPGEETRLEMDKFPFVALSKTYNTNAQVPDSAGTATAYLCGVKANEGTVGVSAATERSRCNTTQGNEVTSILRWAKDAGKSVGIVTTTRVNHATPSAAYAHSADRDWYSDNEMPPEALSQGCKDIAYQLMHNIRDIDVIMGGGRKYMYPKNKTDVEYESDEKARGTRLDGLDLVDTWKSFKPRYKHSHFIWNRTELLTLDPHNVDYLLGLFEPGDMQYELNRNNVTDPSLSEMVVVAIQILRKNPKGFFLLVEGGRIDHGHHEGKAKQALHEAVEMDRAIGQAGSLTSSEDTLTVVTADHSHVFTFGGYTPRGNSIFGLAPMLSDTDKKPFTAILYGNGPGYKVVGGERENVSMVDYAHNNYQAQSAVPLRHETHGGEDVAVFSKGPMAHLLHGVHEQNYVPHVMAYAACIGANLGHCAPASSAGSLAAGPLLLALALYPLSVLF
Put plainly: potency against alkaline phosphatase TNAP – biochemical, luminescent, dose response, SAR follow-up (AID 1056).

The target of assay [2] is G-protein coupled receptor 55 (Homo sapiens, UniProt Q9Y2T6). Put plainly: inhibition of LPI-stimulated GPR55 beta-arrestin translocation – imaging, U2OS, beta-arrestin-GFP, LPI agonist, primary screen (AID 2013).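 Also: antagonist potency measured as reduced agonist-driven arrestin aggregation.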 Format: functional.
Chain of G-protein coupled receptor 55 (Q9Y2T6 whole entry): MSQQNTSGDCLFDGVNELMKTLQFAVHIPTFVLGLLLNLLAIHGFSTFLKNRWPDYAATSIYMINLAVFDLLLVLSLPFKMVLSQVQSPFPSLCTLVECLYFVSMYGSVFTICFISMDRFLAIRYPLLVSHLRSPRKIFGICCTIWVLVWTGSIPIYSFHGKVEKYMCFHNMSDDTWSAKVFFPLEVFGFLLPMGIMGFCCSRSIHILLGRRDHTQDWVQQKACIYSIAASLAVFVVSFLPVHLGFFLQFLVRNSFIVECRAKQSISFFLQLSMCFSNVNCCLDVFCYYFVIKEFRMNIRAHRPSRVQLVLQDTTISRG
Assay [3] has as its target T2, Replicative DNA helicase DnaB (Mycobacterium tuberculosis, UniProt P9WMR3).
T2 sequence (P9WMR3 whole entry): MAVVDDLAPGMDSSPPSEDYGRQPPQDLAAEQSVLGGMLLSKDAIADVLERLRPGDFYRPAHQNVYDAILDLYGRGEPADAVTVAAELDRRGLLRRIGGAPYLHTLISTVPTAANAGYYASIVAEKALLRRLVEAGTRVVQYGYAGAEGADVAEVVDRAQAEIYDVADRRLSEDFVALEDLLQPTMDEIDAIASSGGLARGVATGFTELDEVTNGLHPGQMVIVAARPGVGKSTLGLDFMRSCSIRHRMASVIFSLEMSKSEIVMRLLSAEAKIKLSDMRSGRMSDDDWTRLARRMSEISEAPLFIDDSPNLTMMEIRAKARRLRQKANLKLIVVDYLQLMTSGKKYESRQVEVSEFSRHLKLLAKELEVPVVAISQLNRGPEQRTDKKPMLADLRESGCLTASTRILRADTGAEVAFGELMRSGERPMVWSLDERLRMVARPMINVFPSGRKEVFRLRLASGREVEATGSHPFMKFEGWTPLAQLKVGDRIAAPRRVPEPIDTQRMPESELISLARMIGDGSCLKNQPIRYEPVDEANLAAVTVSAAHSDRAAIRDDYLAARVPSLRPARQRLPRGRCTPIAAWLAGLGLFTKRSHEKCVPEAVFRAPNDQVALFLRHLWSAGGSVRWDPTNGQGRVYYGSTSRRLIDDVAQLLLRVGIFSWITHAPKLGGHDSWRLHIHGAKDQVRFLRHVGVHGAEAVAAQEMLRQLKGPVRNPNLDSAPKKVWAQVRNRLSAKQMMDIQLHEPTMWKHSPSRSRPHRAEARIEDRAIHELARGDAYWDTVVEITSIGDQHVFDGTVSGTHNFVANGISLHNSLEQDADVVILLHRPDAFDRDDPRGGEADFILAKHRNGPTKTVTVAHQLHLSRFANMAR
Kind of assay: DnaB intein splicing inhibitors, dose response, biochemical, cell-free fluorescence (AID 449749). The class given is functional.

Assay [4] has as its target T3, Protein RecA (Mycobacterium tuberculosis, UniProt P9WHJ3).
T3 sequence (P9WHJ3 whole entry): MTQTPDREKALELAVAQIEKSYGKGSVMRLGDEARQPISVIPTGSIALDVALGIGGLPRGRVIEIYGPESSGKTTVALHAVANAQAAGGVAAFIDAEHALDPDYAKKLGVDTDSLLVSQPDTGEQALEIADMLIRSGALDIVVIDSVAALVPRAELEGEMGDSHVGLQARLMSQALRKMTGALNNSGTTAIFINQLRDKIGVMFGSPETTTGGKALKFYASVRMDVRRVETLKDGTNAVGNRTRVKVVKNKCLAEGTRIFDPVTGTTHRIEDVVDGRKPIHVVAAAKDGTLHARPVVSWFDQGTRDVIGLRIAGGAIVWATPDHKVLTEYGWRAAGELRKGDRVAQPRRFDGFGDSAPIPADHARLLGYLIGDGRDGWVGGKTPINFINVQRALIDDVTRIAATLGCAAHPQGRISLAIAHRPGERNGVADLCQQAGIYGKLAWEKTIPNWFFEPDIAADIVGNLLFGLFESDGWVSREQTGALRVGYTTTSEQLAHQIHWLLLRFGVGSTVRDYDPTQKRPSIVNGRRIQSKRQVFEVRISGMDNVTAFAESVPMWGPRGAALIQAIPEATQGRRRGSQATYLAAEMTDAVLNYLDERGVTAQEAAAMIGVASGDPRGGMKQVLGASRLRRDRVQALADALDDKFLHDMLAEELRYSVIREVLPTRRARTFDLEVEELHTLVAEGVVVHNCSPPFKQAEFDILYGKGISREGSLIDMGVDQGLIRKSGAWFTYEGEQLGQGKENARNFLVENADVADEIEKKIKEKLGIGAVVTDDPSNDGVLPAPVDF
Put plainly: Fluorescence Cell-Free Homogeneous Dose Retest to Identify Inhibitors of RecA-Intein Splicing Activity. [Related pubchem assays (depositor defined):AID2097, AID2223, AID489010, AID492950]. Format: functional.

In assay [5] the target is T4, Fatty acid synthase (Homo sapiens, UniProt P49327). Kind of assay: inhibition of human FAS-TE enzyme activity – biochemical, endpoint fluorescence intensity, uHTS hits, dose response (AID 624327).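 Also: fluorescence from hydrolysis of an O-methyl fluorescein acyl ester substrate by the enzyme.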 Format: functional.
T4 sequence (P49327 whole entry): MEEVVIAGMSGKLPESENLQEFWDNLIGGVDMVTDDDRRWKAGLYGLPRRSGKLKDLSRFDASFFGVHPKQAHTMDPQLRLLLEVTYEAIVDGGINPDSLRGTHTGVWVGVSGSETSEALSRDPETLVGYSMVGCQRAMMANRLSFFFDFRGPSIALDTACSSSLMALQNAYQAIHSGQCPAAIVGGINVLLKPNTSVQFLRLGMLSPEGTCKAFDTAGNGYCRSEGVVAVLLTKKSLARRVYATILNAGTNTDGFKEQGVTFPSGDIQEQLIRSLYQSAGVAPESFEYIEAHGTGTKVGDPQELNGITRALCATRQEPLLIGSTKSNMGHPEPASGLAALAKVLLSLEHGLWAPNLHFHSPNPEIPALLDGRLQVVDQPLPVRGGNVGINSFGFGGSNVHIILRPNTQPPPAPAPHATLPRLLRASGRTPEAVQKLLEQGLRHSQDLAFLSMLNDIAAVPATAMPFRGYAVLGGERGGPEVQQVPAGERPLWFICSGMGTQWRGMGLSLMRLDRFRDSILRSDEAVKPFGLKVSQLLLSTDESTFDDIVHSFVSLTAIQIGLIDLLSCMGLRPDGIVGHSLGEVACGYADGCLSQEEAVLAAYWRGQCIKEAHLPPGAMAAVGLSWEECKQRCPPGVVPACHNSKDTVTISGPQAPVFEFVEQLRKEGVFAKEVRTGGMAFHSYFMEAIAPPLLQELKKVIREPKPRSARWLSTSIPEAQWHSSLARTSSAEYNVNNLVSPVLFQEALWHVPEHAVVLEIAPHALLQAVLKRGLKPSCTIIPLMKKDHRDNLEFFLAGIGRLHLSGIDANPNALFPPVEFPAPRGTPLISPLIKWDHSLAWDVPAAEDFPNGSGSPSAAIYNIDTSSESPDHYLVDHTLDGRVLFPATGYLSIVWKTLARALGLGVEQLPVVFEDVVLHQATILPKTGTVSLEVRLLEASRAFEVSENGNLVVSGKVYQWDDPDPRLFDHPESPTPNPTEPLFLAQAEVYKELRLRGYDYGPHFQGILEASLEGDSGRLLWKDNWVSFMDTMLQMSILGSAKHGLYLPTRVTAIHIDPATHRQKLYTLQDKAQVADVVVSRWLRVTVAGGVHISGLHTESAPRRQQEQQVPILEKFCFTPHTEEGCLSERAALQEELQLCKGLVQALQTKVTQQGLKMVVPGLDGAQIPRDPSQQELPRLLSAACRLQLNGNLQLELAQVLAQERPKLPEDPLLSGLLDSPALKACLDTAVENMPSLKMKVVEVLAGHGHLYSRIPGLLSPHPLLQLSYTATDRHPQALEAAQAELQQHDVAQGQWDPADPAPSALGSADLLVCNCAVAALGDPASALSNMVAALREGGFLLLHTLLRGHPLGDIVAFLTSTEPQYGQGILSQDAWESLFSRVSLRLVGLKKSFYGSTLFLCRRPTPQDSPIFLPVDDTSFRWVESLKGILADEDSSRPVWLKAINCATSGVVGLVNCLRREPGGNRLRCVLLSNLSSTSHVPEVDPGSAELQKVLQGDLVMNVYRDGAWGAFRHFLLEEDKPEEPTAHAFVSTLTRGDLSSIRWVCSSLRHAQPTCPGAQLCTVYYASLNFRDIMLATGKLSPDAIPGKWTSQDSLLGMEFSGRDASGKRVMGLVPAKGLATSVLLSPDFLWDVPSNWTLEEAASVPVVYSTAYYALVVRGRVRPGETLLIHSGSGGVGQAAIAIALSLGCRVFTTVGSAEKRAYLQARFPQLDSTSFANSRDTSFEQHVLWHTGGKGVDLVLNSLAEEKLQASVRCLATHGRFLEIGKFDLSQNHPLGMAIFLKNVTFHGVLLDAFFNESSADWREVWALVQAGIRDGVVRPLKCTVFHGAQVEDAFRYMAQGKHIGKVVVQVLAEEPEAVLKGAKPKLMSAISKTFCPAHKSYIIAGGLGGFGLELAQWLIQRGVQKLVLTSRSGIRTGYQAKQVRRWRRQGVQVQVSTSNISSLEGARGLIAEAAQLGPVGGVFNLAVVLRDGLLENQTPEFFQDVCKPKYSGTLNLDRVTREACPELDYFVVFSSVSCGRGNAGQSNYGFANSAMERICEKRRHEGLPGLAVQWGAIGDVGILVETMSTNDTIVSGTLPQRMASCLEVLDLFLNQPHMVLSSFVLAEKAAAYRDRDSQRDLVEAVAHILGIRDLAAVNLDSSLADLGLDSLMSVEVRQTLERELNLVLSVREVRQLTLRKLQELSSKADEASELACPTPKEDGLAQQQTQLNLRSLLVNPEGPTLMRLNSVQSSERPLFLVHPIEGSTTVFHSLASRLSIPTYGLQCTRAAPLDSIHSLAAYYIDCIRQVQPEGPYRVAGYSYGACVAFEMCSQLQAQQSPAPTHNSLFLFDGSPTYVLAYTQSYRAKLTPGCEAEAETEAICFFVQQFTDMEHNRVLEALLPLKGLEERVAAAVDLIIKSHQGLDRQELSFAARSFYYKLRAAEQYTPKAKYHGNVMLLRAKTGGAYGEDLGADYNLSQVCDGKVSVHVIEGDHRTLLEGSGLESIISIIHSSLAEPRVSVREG
Assay [6] addresses T4, Fatty acid synthase. Put plainly: inhibition of human FAS-TE enzyme activity – biochemical, kinetic fluorescence intensity, dose response (AID 624326).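 Also: rate of fluorescence rise from hydrolysis of a fluorogenic O-methyl fluorescein ester substrate.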 The class given is functional.
Assay [7] deals with T5, CAAX prenyl protease 2 (Saccharomyces cerevisiae S288c, UniProt Q03530).
T5 sequence (Q03530 whole entry): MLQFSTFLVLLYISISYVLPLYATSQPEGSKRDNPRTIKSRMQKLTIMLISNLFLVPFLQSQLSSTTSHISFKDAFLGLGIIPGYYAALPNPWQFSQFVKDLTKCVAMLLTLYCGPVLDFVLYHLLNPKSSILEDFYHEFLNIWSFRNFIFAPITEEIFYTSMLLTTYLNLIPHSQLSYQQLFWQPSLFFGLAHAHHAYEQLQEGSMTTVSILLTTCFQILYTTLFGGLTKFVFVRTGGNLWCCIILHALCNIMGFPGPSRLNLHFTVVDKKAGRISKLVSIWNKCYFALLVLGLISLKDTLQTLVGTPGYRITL
The class given is biochemical.

Assay [8] deals with Beta-galactosidase (Escherichia coli, UniProt Q8VNN2). Kind of assay: PubChem AID 485352. The class given is functional.
Chain of Beta-galactosidase (Q8VNN2 whole entry): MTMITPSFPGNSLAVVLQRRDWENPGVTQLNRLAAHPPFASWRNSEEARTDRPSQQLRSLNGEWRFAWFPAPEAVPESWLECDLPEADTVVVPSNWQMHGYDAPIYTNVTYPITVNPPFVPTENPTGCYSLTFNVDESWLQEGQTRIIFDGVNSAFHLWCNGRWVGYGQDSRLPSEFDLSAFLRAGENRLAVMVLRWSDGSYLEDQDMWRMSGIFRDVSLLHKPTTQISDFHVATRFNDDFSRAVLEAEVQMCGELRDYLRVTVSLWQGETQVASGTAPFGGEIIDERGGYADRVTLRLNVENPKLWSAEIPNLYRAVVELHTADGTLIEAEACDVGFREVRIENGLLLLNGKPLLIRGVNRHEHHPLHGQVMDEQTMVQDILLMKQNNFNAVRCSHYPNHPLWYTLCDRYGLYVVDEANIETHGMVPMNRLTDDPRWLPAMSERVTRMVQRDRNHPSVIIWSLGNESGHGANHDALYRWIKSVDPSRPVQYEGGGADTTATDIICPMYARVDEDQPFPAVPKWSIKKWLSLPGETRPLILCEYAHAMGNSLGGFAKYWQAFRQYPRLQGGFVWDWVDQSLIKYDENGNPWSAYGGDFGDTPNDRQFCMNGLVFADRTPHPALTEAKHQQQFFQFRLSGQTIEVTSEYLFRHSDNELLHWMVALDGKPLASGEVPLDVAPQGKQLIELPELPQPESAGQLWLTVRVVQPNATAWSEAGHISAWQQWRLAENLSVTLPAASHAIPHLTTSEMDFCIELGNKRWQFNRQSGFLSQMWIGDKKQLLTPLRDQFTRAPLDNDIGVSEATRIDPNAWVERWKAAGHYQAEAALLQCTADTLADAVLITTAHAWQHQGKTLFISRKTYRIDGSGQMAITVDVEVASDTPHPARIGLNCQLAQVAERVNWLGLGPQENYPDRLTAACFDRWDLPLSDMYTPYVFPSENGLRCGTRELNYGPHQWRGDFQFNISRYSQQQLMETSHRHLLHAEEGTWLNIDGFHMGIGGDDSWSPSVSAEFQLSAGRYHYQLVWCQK
In assay [9] the target is T6, Type-1 angiotensin II receptor (Homo sapiens, UniProt P30556).
T6 sequence (P30556 whole entry): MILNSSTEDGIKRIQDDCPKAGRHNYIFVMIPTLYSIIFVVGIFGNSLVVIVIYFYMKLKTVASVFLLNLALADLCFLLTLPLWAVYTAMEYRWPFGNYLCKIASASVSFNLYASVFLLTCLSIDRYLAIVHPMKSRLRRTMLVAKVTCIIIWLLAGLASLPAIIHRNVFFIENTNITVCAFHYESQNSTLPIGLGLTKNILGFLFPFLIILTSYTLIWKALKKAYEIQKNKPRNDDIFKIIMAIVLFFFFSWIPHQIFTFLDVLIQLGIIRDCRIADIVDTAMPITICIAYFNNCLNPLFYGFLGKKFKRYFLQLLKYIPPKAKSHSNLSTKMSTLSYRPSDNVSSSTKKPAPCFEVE
Put plainly: antagonism of angiotensin II type 1 receptor – cell-based, uHTS hits, selectivity assay for APJ receptor antagonist project, dose response (AID 463214).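 Also: antagonist potency against angiotensin II stimulated AT1 response.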 Format: functional.

Broadly, the IC50 is the concentration that gives 50% inhibition. What is called AC50 is the midpoint of the concentration-response curve, whichever way the signal moves. For orientation: EC50 means the concentration at which the effect is half-maximal.

Structures are written as SMILES. Activity calls are given as the source filed them.

As to `O=C(O)c1[nH]nc2c1COc1ccccc1-2`, the IC50 in assay [1] is 1.31 µM (active).
Consider `O=C(Nc1ccc(Cl)cc1)C(Cl)C(=O)c1ccccc1` (stereo unspecified), for which the IC50 was 1.07 µM (active) in assay [2], 4.3 µM (active) in [5] and 4.67 µM (active) in assay [6]. Moreover, the AC50 in [3] is 5.89 µM (active). Moreover, the EC50 in [4] is 30.3 µM (active).
In the case of `COc1ccccc1NC(=O)Cc1nnc(SCC(=O)Nc2nccs2)n1C`, the AC50 in assay [7] is 21.1 µM (active).
With `Cc1ccc(C(=O)N(c2ccccc2)C2CC(C)N(C(=O)c3ccco3)c3ccccc32)cc1` (stereo unspecified), the IC50 in assay [2] was 2.41 µM (active).
As for `Cc1ccc(-c2c(C(=O)N/N=C/c3cccc(Cl)c3)nnn2-c2nonc2N)cc1`, the EC50 in assay [8] was > 40 µM (inactive). Further, the IC50 in assay [9] is given as > 40 µM (not active). Also, in [7], the AC50 was 1.44 µM (active).

These data come from ChEMBL document CHEMBL1201862, “PubChem BioAssay data set” (2004).
